Experimental data reported in the supplement of paper PMC10307832.

Legend:
Assay in all cases: relative viability (nuclei count vs DMSO), 5 days (fraction); higher = more cells survive
[1] = compound: C1COCCN1C2=NC(=NC3=C2OC4=C3C=CC=N4)C5=CC(=CC=C5)NC(=O)C6=CN=C(C=C6)N + CC(C)C[C@H](NC(=O)[C@H](Cc1ccccc1)NC(=O)c1cnccn1)B(O)O [Bortezomib] (partner 0.002 µM)
How it was run: (§1)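 Relative viability divides the nuclei count in treated wells by that in vehicle wells. Lung cancer cell lines were seeded in 1536-well plates, dosed by pin tool the next day, and fixed and stained after 5 days in one step with final 0.05% Triton X-100, 1% formaldehyde and 1 ug/ml Hoechst. Dosing was a single drug or a fixed anchor-drug dose plus five library-drug doses (not always all listed) in √10 steps, and values are medians of duplicate plates imaged at 4×.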

[2] = compound: CN1CCC(CNc2ccc3ncc(-c4cccc(OC(F)(F)F)c4)n3n2)CC1 [SGI-1776] + Cc1cc(Nc2cc(N3CCN(C)CC3)nc(Sc3ccc(NC(=O)C4CC4)cc3)n2)n[nH]1 [Tozasertib] (partner 0.1 µM)
How it was run: as §1

[3] = compound: Nc1ccccc1NC(=O)c1ccc(CNC(=O)OCc2cccnc2)cc1 [Entinostat] + O=C(CCCCCCC(=O)Nc1ccccc1)NO [Vorinostat] (partner 1 µM)
How it was run: as §1

[4] = compound: C1COCCN1C2=NC(=NC3=C2OC4=C3C=CC=N4)C5=CC(=CC=C5)NC(=O)C6=CN=C(C=C6)N + COc1cc2c(Oc3ccc(NC(=O)C4(C(=O)Nc5ccc(F)cc5)CC4)cc3F)ccnc2cc1OCCCN1CCOCC1 [Foretinib] (partner 0.25 µM)
How it was run: as §1

| Cell Line | relative viability ([1]; first compound 0.02 µM) | relative viability ([1]; first compound 0.06325 µM) | relative viability ([1]; first compound 0.2 µM) | relative viability ([1]; first compound 0.6325 µM) | relative viability ([1]; first compound 2 µM) | relative viability ([2]; first compound 0.08 µM) | relative viability ([2]; first compound 0.8 µM) | relative viability ([2]; first compound 2.53 µM) | relative viability ([2]; first compound 8 µM) | relative viability ([3]; first compound 0.02 µM) | relative viability ([3]; first compound 0.06325 µM) | relative viability ([3]; first compound 0.2 µM) | relative viability ([3]; first compound 0.6325 µM) | relative viability ([3]; first compound 2 µM) | relative viability ([4]; first compound 0.02 µM) | relative viability ([4]; first compound 0.06325 µM) | relative viability ([4]; first compound 0.2 µM) | relative viability ([4]; first compound 0.6325 µM) | relative viability ([4]; first compound 2 µM) |
| --- | --- | --- | --- | --- | --- | --- | --- | --- | --- | --- | --- | --- | --- | --- | --- | --- | --- | --- | --- |
| LOU-NH91 | 0.511 | 0.474 | 0.481 | 0.489 | 0.461 | 0.711 | 0.594 | 0.459 | 0.341 | 0.971 | 0.909 | 0.872 | 0.718 | 0.56 | 0.946 | 0.952 | 0.901 | 0.925 | 0.845 |
| LU99A | 1.12 | 1.17 | 1.07 | 0.748 | 0.497 | 0.252 | 0.239 | 0.229 | 0.25 | 0.521 | 0.499 | 0.503 | 0.388 | 0.326 | 0.824 | 0.821 | 0.75 | 0.582 | 0.497 |
| LXF-289 | 1.1 | 1.11 | 0.996 | 0.997 | 0.409 | 0.171 | 0.212 | 0.184 | 0.0856 | 0.784 | 0.784 | 0.731 | 0.526 | 0.381 | 0.994 | 1 | 0.985 | 0.952 | 0.747 |
| NCI-H23 | 1.15 | 1.44 | 1.15 | 0.899 | 0.446 | 0.367 | 0.295 | 0.282 | 0.205 | 0.601 | 0.681 | 0.496 | 0.271 | 0.198 | 0.85 | – | 0.943 | 0.815 | 0.493 |
| NCI-H322M | 1.2 | 1.25 | 1.25 | 1.24 | 0.965 | 0.551 | 0.483 | 0.461 | 0.394 | 0.967 | 0.975 | 0.981 | 0.876 | 0.808 | 0.919 | 0.918 | 0.935 | 0.849 | 0.686 |
| NCI-H441 | 0.342 | 0.638 | 0.565 | 0.648 | 0.274 | 0.604 | 0.437 | 0.216 | 0.297 | 0.695 | 0.61 | 0.465 | 0.261 | 0.161 | 1.13 | 0.918 | 0.786 | 0.84 | 0.493 |
| NCI-H460 | 1.45 | 1.13 | 1.27 | 1.02 | 0.125 | 0.475 | 0.278 | 0.0744 | 0.0448 | 0.751 | 0.567 | 0.245 | 0.052 | 0.0296 | 1.11 | 1.23 | 1.12 | 1.08 | 0.545 |
| NCI-H520 | 0.637 | 0.641 | 0.465 | 0.529 | 0.298 | 0.436 | 0.442 | 0.427 | 0.385 | 0.634 | 0.732 | 0.764 | 0.491 | 0.306 | 0.839 | 0.742 | 0.669 | 0.798 | 0.469 |
| NCI-H596 | 0.9 | 1.21 | 0.963 | 1 | 0.684 | 1.07 | 1.04 | 0.792 | 0.577 | 0.603 | 0.694 | 0.708 | 0.589 | 0.41 | 1.13 | 0.813 | 0.893 | 0.709 | 0.616 |
| NCI-H647 | 1.02 | 1.47 | 0.983 | 0.862 | 0.402 | 0.389 | 0.198 | 0.175 | 0.175 | 0.513 | 0.577 | 0.345 | 0.209 | 0.0916 | 1.17 | 1.16 | 1.13 | 1.14 | 0.667 |
| NCI-H650 | 0.773 | 0.906 | 0.75 | 0.909 | 0.529 | 0.823 | 0.688 | 0.373 | 0.185 | 0.45 | 0.469 | 0.35 | 0.367 | 0.181 | 1 | 1.01 | 1.06 | 1.03 | 0.919 |
| NCI-H661 | 0.772 | 0.747 | 0.741 | 0.657 | 0.63 | 0.347 | 0.378 | 0.336 | 0.379 | 0.718 | 0.774 | 0.707 | 0.58 | 0.468 | 1 | 1.05 | 1.02 | 0.999 | 0.742 |
| NCI-H727 | 0.748 | 0.834 | 0.806 | 1.12 | 0.536 | 0.669 | 0.598 | 0.536 | 0.472 | 1.24 | 1.27 | 1.16 | 1.06 | 0.673 | 0.945 | 0.807 | 0.82 | 0.865 | 0.676 |
| NCI-H838 | 0.708 | 0.872 | 0.564 | 0.659 | 0.469 | 0.262 | 0.265 | 0.195 | 0.213 | 0.784 | 0.688 | 0.667 | 0.458 | 0.257 | 1.06 | 0.987 | 0.952 | 0.884 | 0.487 |
